Test results from PubChem BioAssay AID1745844 (Carcinogenic Potency Database (CPDB), 2022).
Active and inactive are the calls of the source. The rule behind the calls is not given here.

Tested on: rodent lifetime carcinogenesis bioassay, tumor incidence TD50
Assay: chronic cancer bioassays in animals – CPDB, compiled studies (AID 1745844)

Oc1ccccc1O
TD50 (mouse, strain B6C3F1, females, in feed, site: forestomach, lesion: papilloma, dosed 96 weeks, study length 96 weeks): 17300 mg/kg/day | TD50 (mouse, strain B6C3F1, females, in feed, site: liver, lesion: hyperplastic nodule, dosed 96 weeks, study length 96 weeks): 17300 mg/kg/day | TD50 (mouse, strain B6C3F1, females, in feed, site: stomach, glandular, lesion: adenoma, dosed 96 weeks, study length 96 weeks): 471 mg/kg/day | TD50 (mouse, strain B6C3F1, males, in feed, site: all sites, lesion: lymphoma and leukemia, combined, dosed 96 weeks, study length 96 weeks): 2460 mg/kg/day | TD50 (mouse, strain B6C3F1, males, in feed, site: forestomach, lesion: papilloma, dosed 96 weeks, study length 96 weeks): 16500 mg/kg/day | TD50 (mouse, strain B6C3F1, males, in feed, site: lung, lesion: adenoma, dosed 96 weeks, study length 96 weeks): 16500 mg/kg/day | TD50 (mouse, strain B6C3F1, males, in feed, site: stomach, glandular, lesion: adenoma, dosed 96 weeks, study length 96 weeks): 165 mg/kg/day | TD50 (rat, strain Crj:Wistar, males, in feed, site: forestomach, lesion: squamous-cell carcinoma, dosed 104 weeks, study length 104 weeks): 6470 mg/kg/day | TD50 (rat, strain Crj:Wistar, males, in feed, site: forestomach, lesion: squamous-cell papilloma, dosed 104 weeks, study length 104 weeks): 3180 mg/kg/day | TD50 (rat, strain Crj:Wistar, males, in feed, site: liver, lesion: hepatocellular carcinoma, dosed 104 weeks, study length 104 weeks): 6470 mg/kg/day | TD50 (rat, strain Crj:Wistar, males, in feed, site: liver, lesion: hyperplastic nodule, dosed 104 weeks, study length 104 weeks): 3180 mg/kg/day | TD50 (rat, strain Crj:Wistar, males, in feed, site: stomach, glandular, lesion: adenocarcinoma, dosed 104 weeks, study length 104 weeks): 200 mg/kg/day | TD50 (rat, strain Crj:Wistar, males, in feed, site: stomach, glandular, lesion: adenoma, dosed 104 weeks, study length 104 weeks): 64.5 mg/kg/day | TD50 (rat, strain Crj:Wistar, males, in feed, site: stomach, glandular, lesion: sarcoma, dosed 104 weeks, study length 104 weeks): 2080 mg/kg/day | TD50 (rat, strain F344/DuCrj, females, in feed, site: stomach, glandular, lesion: adenocarcinoma, dosed 104 weeks, study length 104 weeks): 490 mg/kg/day | TD50 (rat, strain F344/DuCrj, males, in feed, site: forestomach, lesion: carcinoma, in situ, dosed 51 weeks, study length 52 weeks): 833 mg/kg/day | TD50 (rat, strain F344/DuCrj, males, in feed, site: forestomach, lesion: papilloma, dosed 51 weeks, study length 52 weeks): 833 mg/kg/day | TD50 (rat, strain F344/DuCrj, males, in feed, site: forestomach, lesion: papilloma, dosed 104 weeks, study length 104 weeks): 2960 mg/kg/day | TD50 (rat, strain F344/DuCrj, males, in feed, site: forestomach, lesion: squamous-cell papilloma, dosed 51 weeks, study length 52 weeks): 833 mg/kg/day | TD50 (rat, strain F344/DuCrj, males, in feed, site: forestomach, lesion: squamous-cell papilloma, dosed 104 weeks, study length 104 weeks): 3300 mg/kg/day | TD50 (rat, strain F344/DuCrj, males, in feed, site: pancreas, lesion: acinar-cell adenoma, dosed 104 weeks, study length 104 weeks): 1180 mg/kg/day | TD50 (rat, strain F344/DuCrj, males, in feed, site: stomach, glandular, pyloric region, lesion: adenocarcinoma, dosed 104 weeks, study length 104 weeks): 3320 mg/kg/day | TD50 (rat, strain F344/DuCrj, males, in feed, site: stomach, glandular, pyloric region, lesion: adenoma, dosed 104 weeks, study length 104 weeks): 43.5 mg/kg/day | TD50 (rat, strain F344/DuCrj, males, in feed, site: stomach, glandular, pyloric region, lesion: sarcoma, dosed 104 weeks, study length 104 weeks): 1940 mg/kg/day | TD50 (rat, strain F344/DuCrj, males, in feed, site: stomach, glandular, lesion: adenocarcinoma, dosed 48 weeks, study length 96 weeks): 387 mg/kg/day | TD50 (rat, strain F344/DuCrj, males, in feed, site: stomach, glandular, lesion: adenocarcinoma, dosed 51 weeks, study length 51 weeks): 130 mg/kg/day | TD50 (rat, strain F344/DuCrj, males, in feed, site: stomach, glandular, lesion: adenocarcinoma, dosed 72 weeks, study length 72 weeks): 206 mg/kg/day | TD50 (rat, strain F344/DuCrj, males, in feed, site: stomach, glandular, lesion: adenocarcinoma, dosed 72 weeks, study length 96 weeks): 202 mg/kg/day | TD50 (rat, strain F344/DuCrj, males, in feed, site: stomach, glandular, lesion: adenocarcinoma, dosed 96 weeks, study length 96 weeks): 141 mg/kg/day | TD50 (rat, strain F344/DuCrj, males, in feed, site: stomach, glandular, lesion: adenocarcinoma, dosed 104 weeks, study length 104 weeks): 286 mg/kg/day | carcinogen call (rat, strain F344/DuCrj, males, in feed, site: stomach, glandular, lesion: adenoma, dosed 48 weeks, study length 96 weeks): positive | carcinogen call (rat, strain F344/DuCrj, males, in feed, site: stomach, glandular, lesion: adenoma, dosed 51 weeks, study length 51 weeks): positive | carcinogen call (rat, strain F344/DuCrj, males, in feed, site: stomach, glandular, lesion: adenoma, dosed 51 weeks, study length 52 weeks): positive | carcinogen call (rat, strain F344/DuCrj, males, in feed, site: stomach, glandular, lesion: adenoma, dosed 72 weeks, study length 72 weeks): positive | carcinogen call (rat, strain F344/DuCrj, males, in feed, site: stomach, glandular, lesion: adenoma, dosed 72 weeks, study length 96 weeks): positive | carcinogen call (rat, strain F344/DuCrj, males, in feed, site: stomach, glandular, lesion: adenoma, dosed 96 weeks, study length 96 weeks): positive | carcinogen call (rat, strain F344/DuCrj, males, in feed, site: stomach, glandular, lesion: several types, types named in the paper, dosed 51 weeks, study length 52 weeks): positive | TD50 (rat, strain Fischer 344, males, in drinking water, site: prostate, lesion: carcinoma, in situ, dosed 78 weeks, study length 78 weeks): 236 mg/kg/day (inactive) | carcinogen call (rat, strain Fischer 344, males, in drinking water, site: urinary bladder, lesion: one or several types, types not named, dosed 78 weeks, study length 78 weeks): negative (inactive) | TD50 (rat, strain LEW/Crj (Lewis), males, in feed, site: stomach, glandular, lesion: adenocarcinoma, dosed 104 weeks, study length 104 weeks): 166 mg/kg/day | TD50 (rat, strain LEW/Crj (Lewis), males, in feed, site: stomach, glandular, lesion: adenoma, dosed 104 weeks, study length 104 weeks): 64.5 mg/kg/day | TD50 (rat, strain LEW/Crj (Lewis), males, in feed, site: stomach, glandular, lesion: sarcoma, dosed 104 weeks, study length 104 weeks): 2080 mg/kg/day | TD50 (rat, strain SD(Crj:CD) Sprague-Dawley, males, in feed, site: forestomach, lesion: squamous-cell carcinoma, dosed 104 weeks, study length 104 weeks): 6470 mg/kg/day | TD50 (rat, strain SD(Crj:CD) Sprague-Dawley, males, in feed, site: forestomach, lesion: squamous-cell papilloma, dosed 104 weeks, study length 104 weeks): 983 mg/kg/day | TD50 (rat, strain SD(Crj:CD) Sprague-Dawley, males, in feed, site: stomach, glandular, lesion: adenocarcinoma, dosed 104 weeks, study length 104 weeks): 151 mg/kg/day | carcinogen call (rat, strain SD(Crj:CD) Sprague-Dawley, males, in feed, site: stomach, glandular, lesion: adenoma, dosed 104 weeks, study length 104 weeks): positive | TD50 (rat, strain WKY/NCrj (Wistar), males, in feed, site: forestomach, lesion: squamous-cell papilloma, dosed 104 weeks, study length 104 weeks): 6470 mg/kg/day | TD50 (rat, strain WKY/NCrj (Wistar), males, in feed, site: liver, lesion: several types, types named in the paper, dosed 104 weeks, study length 104 weeks): 12400 mg/kg/day | TD50 (rat, strain WKY/NCrj (Wistar), males, in feed, site: stomach, glandular, lesion: adenocarcinoma, dosed 104 weeks, study length 104 weeks): 2080 mg/kg/day | carcinogen call (rat, strain WKY/NCrj (Wistar), males, in feed, site: stomach, glandular, lesion: adenoma, dosed 104 weeks, study length 104 weeks): positive

COc1ccc(N)c(OC)c1
TD50 (mouse, strain B6C3F1, females, in feed, site: any site (literature study), lesion: several types, types named in the paper, dosed 103 weeks, study length 104 weeks): 986 mg/kg/day (inactive) | TD50 (mouse, strain B6C3F1, females, in feed, site: liver, lesion: hepatocellular adenoma + hepatocellular carcinoma + neoplastic nodule, dosed 103 weeks, study length 104 weeks): 2790 mg/kg/day | TD50 (mouse, strain B6C3F1, females, in feed, site: lung, lesion: alveolar/bronchiolar adenoma + alveolar/bronchiolar carcinoma, dosed 103 weeks, study length 104 weeks): 50600 mg/kg/day | TD50 (mouse, strain B6C3F1, males, in feed, site: any site (literature study), lesion: several types, types named in the paper, dosed 103 weeks, study length 104 weeks): 1650 mg/kg/day (inactive) | TD50 (mouse, strain B6C3F1, males, in feed, site: liver, lesion: hepatocellular adenoma + hepatocellular carcinoma + neoplastic nodule, dosed 103 weeks, study length 104 weeks): 1390 mg/kg/day | carcinogen call (rat, strain Fischer 344, females, in feed, site: any site (literature study), lesion: several types, types named in the paper, dosed 104 weeks, study length 105 weeks): negative (inactive) | carcinogen call (rat, strain Fischer 344, males, in feed, site: any site (literature study), lesion: several types, types named in the paper, dosed 104 weeks, study length 105 weeks): negative (inactive)

COC(=O)C1=C(C)NC(C)=C(C(=O)OCC(C)(C)CN(C)Cc2ccccc2)C1c1cc([N+](=O)[O-])ccc1F (stereo unspecified)
carcinogen call (rat, strain Fischer 344, females, in feed, site: liver, lesion: one or several types, types not named, dosed 104 weeks, study length 104 weeks): negative (inactive) | carcinogen call (rat, strain Fischer 344, males, in feed, site: all sites, lesion: mononuclear-cell leukemia, dosed 104 weeks, study length 104 weeks): negative (inactive) | carcinogen call (rat, strain Fischer 344, males, in feed, site: liver, lesion: hepatocellular adenoma, dosed 104 weeks, study length 104 weeks): negative (inactive)

CC[C@H]1OC(=O)C[C@@H](O)[C@H](C)[C@@H](O[C@@H]2O[C@H](C)[C@@H](O[C@H]3C[C@@](C)(O)[C@@H](O)[C@H](C)O3)[C@H](N(C)C)[C@H]2O)[C@@H](CC=O)C[C@@H](C)C(=O)/C=C/C(C)=C/C1CO[C@@H]1O[C@H](C)[C@@H](O)[C@@H](OC)[C@H]1OC (stereo partly specified)
carcinogen call (mouse, strain C57BL/6, females, in feed, site: liver, lesion: one or several types, types not named, dosed 52 weeks, study length 52 weeks): negative (inactive) | carcinogen call (mouse, strain C57BL/6, females, in feed, site: lung, lesion: one or several types, types not named, dosed 52 weeks, study length 52 weeks): negative (inactive) | carcinogen call (mouse, strain C57BL/6, males, in feed, site: liver, lesion: one or several types, types not named, dosed 52 weeks, study length 52 weeks): negative (inactive) | carcinogen call (mouse, strain C57BL/6, males, in feed, site: lung, lesion: one or several types, types not named, dosed 52 weeks, study length 52 weeks): negative (inactive)

NC(=O)N/N=C/c1ccco1
TD50 (rat, strain Sprague-Dawley, females, in feed, site: mammary gland, lesion: fibroadenoma, dosed 46 weeks, study length 66 weeks): 48.8 mg/kg/day (inactive)

C#C[C@]1(OC(C)=O)CC[C@H]2[C@@H]3CCC4=C[C@@H](OC(C)=O)CC[C@@H]4[C@H]3CC[C@@]21C
carcinogen call (rat, strain Wistary/NIN, females, by gavage, site: liver, lesion: one or several types, types not named, dosed 60 weeks, study length 60 weeks): negative (inactive)

Cc1ccc(NC(N)=O)cc1
carcinogen call (mouse, strain C57BL/6, females, in feed, site: liver, lesion: hepatocellular carcinoma, dosed 52 weeks, study length 69 weeks): negative (inactive) | carcinogen call (mouse, strain C57BL/6, females, in feed, site: lung, lesion: alveolar/bronchiolar adenoma, dosed 52 weeks, study length 69 weeks): negative (inactive) | TD50 (mouse, strain C57BL/6, males, in feed, site: all sites, lesion: malignant lymphoma, histiocytic type, dosed 52 weeks, study length 69 weeks): 265 mg/kg/day | TD50 (mouse, strain C57BL/6, males, in feed, site: all sites, lesion: malignant lymphoma, dosed 52 weeks, study length 69 weeks): 206 mg/kg/day | TD50 (mouse, strain C57BL/6, males, in feed, site: liver, lesion: hepatocellular carcinoma, dosed 52 weeks, study length 69 weeks): 722 mg/kg/day (inactive) | carcinogen call (mouse, strain C57BL/6, males, in feed, site: lung, lesion: alveolar/bronchiolar adenoma, dosed 52 weeks, study length 69 weeks): negative (inactive) | TD50 (mouse, strain C57BL/6, males, in feed, site: mesenteric lymph node, lesion: malignant lymphoma, histiocytic type, dosed 52 weeks, study length 69 weeks): 626 mg/kg/day | TD50 (mouse, strain C57BL/6, males, in feed, site: multiple organs, lesion: malignant lymphoma, histiocytic type, dosed 52 weeks, study length 69 weeks): 441 mg/kg/day | carcinogen call (rat, strain Fischer 344, females, in feed, site: liver, lesion: one or several types, types not named, dosed 52 weeks, study length 69 weeks): negative (inactive) | TD50 (rat, strain Fischer 344, males, in feed, site: liver, lesion: hepatocellular carcinoma, dosed 52 weeks, study length 69 weeks): 699 mg/kg/day (inactive)
